In patent publication US20050020519A1, “Modulation of insulin-regulated aminopeptidase (irap)/angiotensin iv (at4) receptor activity” (priority 2001, published 2005):
Where no end group is shown, it is not given here.

Assays:
[1] = system: rats; assay: Passive avoidance, scopolamine-induced amnesia; format: in vivo, rat
Procedure: Passive avoidance trials were then used to test the effect of modulation of AT4 receptor/IRAP activity on aversive conditioning behaviour in amnesic animals. The passive avoidance task involves aversive conditioning behaviour to measure facilitation of memory retention and retrieval. The testing was carried out in an apparatus that consisted of a light and a dark compartment separated by a guillotine door. The floor of the dark compartment contained an electrified grid.
Rats were surgically implanted with chronic cannulae in the lateral ventricle. On conditioning day, the animals were habituated in the dark compartment for 5 min with the guillotine door closed. The animals were then placed in their home cages for 5 min before being placed in the light compartment with the guillotine door opened. The latency to enter the dark compartment with all four feet was documented. When the rats entered the dark compartment within 20 s of being placed in the light compartment, they were randomly divided into four treatment groups. The treatment groups were: • (1) saline followed by saline; • (2) saline followed by 1.0 nmole […] (SEQ ID NO:2); • (3) 70 nmole scopolamine followed by saline; and • (4) 70 nmole scopolamine followed by 1.0 nmole […] (SEQ ID NO:2).
All of these were administered into the cerebral ventricles 30 min and 5 min before the acquisition trial. […]

[2] = system: AT4 receptor; conditions: Moeller et al, 1996; Zhang et al, 1999; cited from earlier work
[3] = target: T1, IRAP (Homo sapiens, UniProt Q9UIQ6); assay: IRAP enzymatic activity, hydrolysis of L-leucine-β-naphthylamide (fluorescence); format: biochemical
T1 construct: expressed in transfected cells; host or cells: HEK 293T cells (solubilised membrane protein)
T1 sequence (Q9UIQ6 whole entry): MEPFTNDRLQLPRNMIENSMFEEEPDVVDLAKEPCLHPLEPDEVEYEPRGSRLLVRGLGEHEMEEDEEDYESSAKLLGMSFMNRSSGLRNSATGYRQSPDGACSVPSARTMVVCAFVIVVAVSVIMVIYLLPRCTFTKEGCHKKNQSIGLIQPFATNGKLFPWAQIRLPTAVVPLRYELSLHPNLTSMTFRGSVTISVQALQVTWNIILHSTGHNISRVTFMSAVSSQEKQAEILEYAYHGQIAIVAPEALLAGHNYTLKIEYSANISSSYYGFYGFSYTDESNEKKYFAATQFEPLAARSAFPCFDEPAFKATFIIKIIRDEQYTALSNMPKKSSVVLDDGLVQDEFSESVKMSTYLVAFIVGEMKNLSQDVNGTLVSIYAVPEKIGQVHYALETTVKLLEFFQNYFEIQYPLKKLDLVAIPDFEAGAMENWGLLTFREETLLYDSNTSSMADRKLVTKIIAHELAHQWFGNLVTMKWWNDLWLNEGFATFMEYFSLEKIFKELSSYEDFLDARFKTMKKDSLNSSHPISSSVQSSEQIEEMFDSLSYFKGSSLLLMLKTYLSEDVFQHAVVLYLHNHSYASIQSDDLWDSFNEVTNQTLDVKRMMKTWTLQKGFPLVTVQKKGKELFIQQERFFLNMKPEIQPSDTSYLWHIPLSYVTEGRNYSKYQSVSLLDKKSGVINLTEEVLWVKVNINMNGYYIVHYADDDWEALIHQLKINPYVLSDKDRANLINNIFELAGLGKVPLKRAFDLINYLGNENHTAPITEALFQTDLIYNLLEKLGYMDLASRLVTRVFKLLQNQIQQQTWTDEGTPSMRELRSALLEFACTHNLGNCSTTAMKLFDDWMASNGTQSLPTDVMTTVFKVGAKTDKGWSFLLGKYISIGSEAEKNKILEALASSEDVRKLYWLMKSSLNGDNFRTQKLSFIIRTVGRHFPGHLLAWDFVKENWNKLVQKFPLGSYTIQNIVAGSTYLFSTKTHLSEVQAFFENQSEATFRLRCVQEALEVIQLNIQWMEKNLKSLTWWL
Text: For example, Hek293 cells stably transfected with a eukaryotic expression vector expressing the AT4 receptor gene may be utilized. An example of this is the vector pcDNA-3 containing the cDNA encoding the full length AT4 receptor. Two assay systems are used, one for each spliced variant of the human AT4 receptor gene. The assay system involves the measurement of the rate of hydrolysis of L-leucyl β-naphthylamide by the AT4 receptor. The rate of hydrolysis by the transfected cells is followed by recording the increase in fluorescence (excitation at 340 nm, emission at 410 nm) using a purpose-designed fluorimeter. Test compounds are added to the assay system, and their effects on the hydrolysis of L-leucyl β-naphthylamide are a direct indicator of their modulation of AT4 receptor activity.
Crude membranes were prepared from HEK 293 cells stably transfected with pcDNA-3 containing the cDNA encoding the full length AT4 receptor/IRAP, using the same method as that described for bovine adrenal membranes. The membranes were solubilised in 50 mM Tris-HCl containing 1% Triton-X100 at 4° C. for 16 h. The IRAP enzymatic activity was determined by the hydrolysis of a synthetic substrate, L-leucine-β-naphthylamide, and monitored by the release of a fluorogenic product on a spectrophotometer set at excitation 340 nm and emission 410 nm. One hundred μM of the substrate was added to 10 μg of solubilised membranes, and the increase in fluorescence monitored for 10 min.
Samples were assayed 2-3 times in triplicate, except controls, which were performed 5 times in triplicate.

[4] = target: T2, IRAP (AT4 receptor) (Homo sapiens, UniProt Q9UIQ6); assay: ^125I-Nle^1 Ang IV binding to membranes of HEK 293 cells transfected with IRAP cDNA; conditions: IRAP cDNA transfected cells
T2 construct: expressed in transfected cells; host or cells: HEK 293 cells (membranes)
T2 sequence (Q9UIQ6 whole entry): as above
Text: The amount of radioligand bound to the membranes from HEK 293 cells transfected with IRAP cDNA was expressed as a percentage of radioligand bound to membranes from HEK 293 cells transfected with control plasmids.

[5] = system: rats; assay: Morris water maze, scopolamine-induced amnesia; format: in vivo, rat; conditions: 1 nmole icv after 70 nmole scopolamine
Text: The maze consisted of a circular tank, 1.6 m in diameter by 0.6 m in height, containing water to a depth of 30 cm. The room contained visual cues placed 40 cm from the edge of the tank. The rats were subjected to two days of familiarisation to the task, during which the escape pedestal is visible to the animals. During the acquisition phase, for the following 5 days, the water in the tank was rendered opaque, and the escape platform was submerged under the surface of the water. The animals had to rely on the visual cues around the room to find the submerged escape pedestal. The latency of the animal in finding the pedestal during the acquisition phase was taken as a measure of the spatial memory performance of the animal.
Rats were surgically implanted with cannulae in their lateral ventricles and allowed two to three days of recovery. During the familiarisation trials on days 1 and 2, the animals were placed in the water facing the wall of the tank from different starting positions equidistant from the escape pedestal. When the animals located and mounted the pedestal, they were allowed 30 seconds on the pedestal before the commencement of the next trial. Four consecutive trials were carried out on each animal on each day, and the mean latency period before the animal reached the pedestal was plotted. […]

[6] = system: rat hippocampal slices; assay: Potassium-evoked ^3H-choline release from rat hippocampal slices; format: cell-based; conditions: at 10^−7M
Procedure: To determine the effect of IRAP inhibitors an acetylcholine release for rat hippocampal slices in vitro, rats were anaesthetized with sodium pentobarbitone, decapitated and the brain rapidly extracted and put on ice. The two sides of the hippocampus were then dissected, and stored in Krebs buffer on ice. The tissues were sectioned into 400 μm slices using a McI1wain slicer, and incubated with 10 μM of ^3H-choline in Krebs buffer for 20 min at 37° C. Following the incubation, the sections were transferred to Brandel superfusion chambers filled with carbogenated Krebs buffer, pH7.0 containing […] hemicholinium HC-3 to prevent choline reuptake. The slices were washed for 60 min at 37° C. with Krebs buffer at a flow rate of 500 μl/min. Superfusate samples were collected at 5 min intervals for the duration of the experiment. After a stable baseline was established, the hippocampal slices were depolarised by the addition of 30 mM KCl to the Krebs buffer and infused for 4 min (stimulation period S1). The tissue was then allowed to recover for 25 min before the next stimulation period (S2). To test the effect of […] […] Fractional ^3H-choline release, expressed as a ratio of S2/S1, was then calculated for each of the different peptides at the different doses.

Sequence: LVVYPWTQRF
- latency to re-enter the dark compartment ([1]; 1.0 nmole icv after 70 nmole scopolamine): not significantly different from controls
- latency to re-enter the dark compartment ([1]; 1.0 nmole icv alone (after saline)): comparable to the scopolamine-treated group
- affinity for AT4 receptor [2]: nanomolar affinity
- Ki [3]: 845 nM
- hydrolysis of L-leucine-β-naphthylamide by membranes containing IRAP ([3]; 10 mM peptide): totally abolished
- type of inhibition of IRAP ([3]; Lineweaver-Burk analysis): competitive inhibitors
- binding of ^125I-Nle^1 angiotensin IV to IRAP sites inhibited by ligand [4]: competitively inhibited
- latency in locating the submerged pedestal [5]: reversed the scopolamine-induced latency
- maximum effect on potassium-evoked ^3H-choline release [6]: 180 % of control
